Experimental data: patent publication US7217730B2, “Method for the use of pyranoindole derivatives to treat infection with Hepatitis C virus” (Wyeth, priority 2002, dated 2007)
Where two headings read alike, the source gives them in different places.

Molecular target: T1, NS5B from the BK strain (genotype 1b) (Hepatitis C virus genotype 1b, UniProt P26663)
T1 construct: NS5B from the BK strain (genotype 1b) is expressed in E. coli as a protein in which the 21 C-terminal amino acids are replaced; made in house; host or cells: E. coli
T1 sequence (P26663 2420-2989): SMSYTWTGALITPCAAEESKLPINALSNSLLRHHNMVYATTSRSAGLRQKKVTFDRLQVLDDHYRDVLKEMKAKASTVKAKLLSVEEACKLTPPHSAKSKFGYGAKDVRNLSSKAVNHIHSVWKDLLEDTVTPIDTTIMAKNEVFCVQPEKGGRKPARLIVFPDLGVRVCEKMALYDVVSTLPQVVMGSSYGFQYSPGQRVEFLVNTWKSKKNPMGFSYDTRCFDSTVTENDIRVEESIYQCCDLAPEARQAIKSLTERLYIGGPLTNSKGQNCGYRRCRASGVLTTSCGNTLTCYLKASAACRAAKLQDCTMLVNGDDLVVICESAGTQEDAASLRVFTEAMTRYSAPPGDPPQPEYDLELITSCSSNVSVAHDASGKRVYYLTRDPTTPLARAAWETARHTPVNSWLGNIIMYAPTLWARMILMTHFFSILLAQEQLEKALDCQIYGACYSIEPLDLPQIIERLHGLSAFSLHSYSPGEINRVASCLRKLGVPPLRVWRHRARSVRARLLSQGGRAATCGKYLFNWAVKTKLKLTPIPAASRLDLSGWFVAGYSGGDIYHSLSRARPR
Assay: Hepatitis C polymerase inhibition, NS5B BK strain, 33P-GTP filter assay
Assay type: biochemical
Details: for inhibition at 20 µM: read-out: HCV pol % inh at 20 μM; for IC50: NS5B BK strain, read-out: HCV pol BK IC50
Outline: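 E. coli-expressed NS5B (BK, genotype 1b) with the 21 C-terminal residues replaced by a linker-His6 tag was preincubated with compound for 15 min at room temperature. It then extended a hairpin-primed heteropolymeric RNA (~3 nM, ~760 nt product) with α-[33P]-GTP for 2 h at 22–25° C. The reaction was stopped with EDTA, and incorporated label was counted on filters.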

Structure (SMILES) | inhibition at 20 µM (Table 1A, 20 μM compound) | IC50 (Table 1A) | inhibition at 20 µM
O=C(O)CC1(CC(=O)O)OCCc2c1[nH]c1cccc(Cl)c21 [Example 71, [1-(carboxymethyl)-5-chloro-1,3,4,9-tetrahydropyrano[3,4-b]indol-1-yl]acetic acid] | 45% | > 5 µM | –
CC1(CC(=O)O)OCCc2c1[nH]c1c(Cl)cccc21 (centres unmarked) [Example 72, (8-chloro-1-methyl-1,3,4,9-tetrahydropyrano[3,4-b]indol-1-yl)acetic acid] | 45% | > 20 µM | –
CCC1(CC(=O)O)OCCc2c1[nH]c1c(Cl)cccc21 (centres unmarked) [Example 73, (8-chloro-1-ethyl-1,3,4,9-tetrahydropyrano[3,4-b]indol-1-yl)acetic acid] | 22% | > 20 µM | –
CCCC1(CC(=O)O)OCCc2c1[nH]c1c(Cl)cccc21 (centres unmarked) [Example 74, (8-chloro-1-propyl-1,3,4,9-tetrahydropyrano[3,4-b]indol-1-yl)acetic acid] | 69% | 17.9 µM | –
CC(C)C1(CC(=O)O)OCCc2c1[nH]c1c(Cl)cccc21 (centres unmarked) [Example 75, (8-chloro-1-isopropyl-1,3,4,9-tetrahydropyrano[3,4-b]indol-1-yl)acetic acid] | 17% | > 20 µM | –
CCCCC1(CC(=O)O)OCCc2c1[nH]c1c(Cl)cccc21 (centres unmarked) [Example 76, (1-butyl-8-chloro-1,3,4,9-tetrahydropyrano[3,4-b]indol-1-yl)acetic acid] | 29% | > 20 µM | –
C/C=C/CCC1(CC(=O)O)OCCc2c1[nH]c1c(Cl)cccc21 (centres unmarked) [Example 77, {8-chloro-1-[(3E)-pent-3-enyl]-1,3,4,9-tetrahydropyrano[3,4-b]indol-1-yl}acetic acid] | 16% | > 20 µM | –
O=C(O)CC1(c2ccccc2)OCCc2c1[nH]c1c(Cl)cccc21 (centres unmarked) [Example 78, (8-chloro-1-phenyl-1,3,4,9-tetrahydropyrano[3,4-b]indol-1-yl)acetic acid] | 26% | > 20 µM | –
O=C(O)CC1(c2ccoc2)OCCc2c1[nH]c1c(Cl)cccc21 (centres unmarked) [Example 79, [8-chloro-1-(3-furyl)-1,3,4,9-tetrahydropyrano[3,4-b]indol-1-yl]acetic acid] | 40% | > 20 µM | –
CC1(CC(=O)O)OCCc2c1[nH]c1c(Br)cccc21 (centres unmarked) [Example 80, (8-bromo-1-methyl-1,3,4,9-tetrahydropyrano[3,4-b]indol-1-yl)acetic acid] | 35% | > 20 µM | –
CCC1(CC(=O)O)OCCc2c1[nH]c1c(Br)cccc21 (centres unmarked) [Example 81, (8-bromo-1-ethyl-1,3,4,9-tetrahydropyrano[3,4-b]indol-1-yl)acetic acid] | 27% | > 20 µM | –
CCCC1(CC(=O)O)OCCc2c1[nH]c1c(Br)cccc21 (centres unmarked) [Example 82, (8-bromo-1-propyl-1,3,4,9-tetrahydropyrano[3,4-b]indol-1-yl)acetic acid] | 73% | 9.2 µM | –
CC(C)C1(CC(=O)O)OCCc2c1[nH]c1c(Br)cccc21 (centres unmarked) [Example 83, (8-bromo-1-isopropyl-1,3,4,9-tetrahydropyrano[3,4-b]indol-1-yl)acetic acid] | 41% | > 20 µM | –
CCCCC1(CC(=O)O)OCCc2c1[nH]c1c(Br)cccc21 (centres unmarked) [Example 84, (8-bromo-1-butyl-1,3,4,9-tetrahydropyrano[3,4-b]indol-1-yl)acetic acid] | 46% | 19.7 µM | –
C/C=C/CCC1(CC(=O)O)OCCc2c1[nH]c1c(Br)cccc21 (centres unmarked) [Example 85, {8-bromo-1-[(3E)-pent-3-enyl]-1,3,4,9-tetrahydropyrano[3,4-b]indol-1-yl}acetic acid] | 18% | > 20 µM | –
O=C(O)CC1(c2ccccc2)OCCc2c1[nH]c1c(Br)cccc21 (centres unmarked) [Example 86, (8-bromo-1-phenyl-1,3,4,9-tetrahydropyrano[3,4-b]indol-1-yl)acetic acid] | 20% | > 20 µM | –
O=C(O)CC1(c2ccc(C(=O)O)cc2)OCCc2c1[nH]c1c(Br)cccc21 (centres unmarked) [Example 87, 4-[8-bromo-1-(carboxymethyl)-1,3,4,9-tetrahydropyrano[3,4-b]indol-1-yl]benzoic acid] | 42% | > 20 µM | –
O=C(O)CC1(c2ccoc2)OCCc2c1[nH]c1c(Br)cccc21 (centres unmarked) [Example 88, [8-bromo-1-(3-furyl)-1,3,4,9-tetrahydropyrano[3,4-b]indol-1-yl]acetic acid] | 30% | > 20 µM | –
CCCC1(CC(=O)O)OCCc2c1[nH]c1c(-c3ccccc3)cccc21 (centres unmarked) [Example 89, (8-phenyl-1-propyl-1,3,4,9-tetrahydropyrano[3,4-b]indol-1-yl)acetic acid] | 36% | > 20 µM | –

Structure (SMILES) | inhibition at 20 µM (Table 1A, 20 μM compound) | IC50 (Table 1A) | inhibition at 20 µM
CCCC1(CC(=O)O)OCCc2c1[nH]c1c(-c3ccc(C)cc3)cccc21 (centres unmarked) [Example 90, [8-(4-methylphenyl)-1-propyl-1,3,4,9-tetrahydropyrano[3,4-b]indol-1-yl]acetic acid] | 2% | > 20 µM | –
CCCC1(CC(=O)O)OCCc2c1[nH]c1c(-c3ccc(OC)cc3)cccc21 (centres unmarked) [Example 91, [8-(4-methoxyphenyl)-1-propyl-1,3,4,9-tetrahydropyrano[3,4-b]indol-1-yl]acetic acid] | < 5% | > 20 µM | –
CCCC1(CC(=O)O)OCCc2c1[nH]c1c(-c3ccc(Cl)cc3)cccc21 (centres unmarked) [Example 92, [8-(4-chlorophenyl)-1-propyl-1,3,4,9-tetrahydropyrano[3,4-b]indol-1-yl]acetic acid] | 35% | > 20 µM | –
CCCC1(CC(=O)O)OCCc2c1[nH]c1c(-c3ccc(Cl)cc3Cl)cccc21 (centres unmarked) [Example 93, [8-(2,4-dichlorophenyl)-1-propyl-1,3,4,9-tetrahydropyrano[3,4-b]indol-1-yl]acetic acid] | 64% | > 20 µM | –
CCCC1(CC(=O)O)OCCc2c1[nH]c1c(-c3ccc(C(F)(F)F)cc3)cccc21 (centres unmarked) [Example 94, {1-propyl-8-[4-(trifluoromethyl)phenyl]-1,3,4,9-tetrahydropyrano[3,4-b]indol-1-yl}acetic acid] | 33% | > 20 µM | –
CCCC1(CC(=O)O)OCCc2c1[nH]c1c(-c3cccc(Br)c3)cccc21 (centres unmarked) [Example 96, [8-(3-bromophenyl)-1-propyl-1,3,4,9-tetrahydropyrano[3,4-b]indol-1-yl]acetic acid] | 37% | > 20 µM | –
CCCC1(CC(=O)O)OCCc2c1[nH]c1c(-c3cccc(N)c3)cccc21 (centres unmarked) [Example 97, [8-(3-aminophenyl)-1-propyl-1,3,4,9-tetrahydropyrano[3,4-b]indol-1-yl]acetic acid] | 21% | > 20 µM | –
CCCC1(CC(=O)O)OCCc2c1[nH]c1c(C#N)cccc21 (centres unmarked) [Example 98, (8-cyano-1-propyl-1,3,4,9-tetrahydropyrano[3,4-b]indol-1-yl)acetic acid] | 44% | > 20 µM | –
CC1(CC(=O)O)OCCc2c1[nH]c1c(Cl)cc(Cl)cc21 (centres unmarked) [Example 99, (6,8-dichloro-1-methyl-1,3,4,9-tetrahydropyrano[3,4-b]indol-1-yl)acetic acid] | 32% | > 20 µM | –
CCC1(CC(=O)O)OCCc2c1[nH]c1c(Cl)cc(Cl)cc21 (centres unmarked) [Example 100, (6,8-dichloro-1-ethyl-1,3,4,9-tetrahydropyrano[3,4-b]indol-1-yl)acetic acid] | 54% | > 20 µM | –
CCCC1(CC(=O)O)OCCc2c1[nH]c1c(Cl)cc(Cl)cc21 (centres unmarked) [Example 101, (6,8-dichloro-1-propyl-1,3,4,9-tetrahydropyrano[3,4-b]indol-1-yl)acetic acid] | 89% | 1.5 µM | –
CC(C)C1(CC(=O)O)OCCc2c1[nH]c1c(Cl)cc(Cl)cc21 (centres unmarked) [Example 102, (6,8-dichloro-1-isopropyl-1,3,4,9-tetrahydropyrano[3,4-b]indol-1-yl)acetic acid] | 51% | 21.7 µM | –
CCCCC1(CC(=O)O)OCCc2c1[nH]c1c(Cl)cc(Cl)cc21 (centres unmarked) [Example 103, (1-butyl-6,8-dichloro-1,3,4,9-tetrahydropyrano[3,4-b]indol-1-yl)acetic acid] | 60% | 14.4 µM | –
C/C=C/CCC1(CC(=O)O)OCCc2c1[nH]c1c(Cl)cc(Cl)cc21 (centres unmarked) [Example 104, {6,8-dichloro-1-[(3E)-pent-3-enyl]-1,3,4,9-tetrahydropyrano[3,4-b]indol-1-yl}acetic acid] | < 5% | > 20 µM | –
O=C(O)CC1(c2ccccc2)OCCc2c1[nH]c1c(Cl)cc(Cl)cc21 (centres unmarked) [Example 105, (6,8-dichloro-1-phenyl-1,3,4,9-tetrahydropyrano[3,4-b]indol-1-yl)acetic acid] | 57% | > 5 µM | –
O=C(O)CC1(c2ccc(C(=O)O)cc2)OCCc2c1[nH]c1c(Cl)cc(Cl)cc21 (centres unmarked) [Example 106, 4-[1-(carboxymethyl)-6,8-dichloro-1,3,4,9-tetrahydropyrano[3,4-b]indol-1-yl]benzoic acid] | 71% | 2.3 µM | –
CC1(CC(=O)O)OCCc2c1[nH]c1ccc(Cl)c(Cl)c21 (centres unmarked) [Example 107, (5,6-dichloro-1-methyl-1,3,4,9-tetrahydropyrano[3,4-b]indol-1-yl)acetic acid] | 50% | 19.1 µM | –
O=C(O)CC1(c2ccc(C(=O)O)cc2)OCCc2c1[nH]c1ccc(Cl)c(Cl)c21 (centres unmarked) [Example 113, 4-[1-(carboxymethyl)-5,6-dichloro-1,3,4,9-tetrahydropyrano[3,4-b]indol-1-yl]benzoic acid] | – | 0.26 µM | 35%
